Reference: paper PMC9266914, “Broad Spectrum Functional Activity of Structurally Related Monoanionic Au(III) Bis(Dithiolene) Complexes” (International Journal of Molecular Sciences, 2022)
Read-outs that look alike come from different tables or passages of the source. Marks after values point to notes of the source that are not given here.

Tests used:
[1] = tested on: A2780 ovarian cancer cells; assay: MTT cytotoxicity assay in A2780 (cisplatin sensitive) ovarian cancer cells; assay type: cell-based, human
Experimental: (§1) Cells were exposed to increasing concentrations of the complexes (0.01–100 μM) for 24 and/or 48 h, at 37 °C. The IC50 values were calculated from dose–response curves using the colorimetric MTT assay. […] Most complexes presented a similar cytotoxicity profile compared to Auranofin, but higher activity compared to Cisplatin, and, most importantly, were active in the Cisplatin-resistant OVCAR8 cells (Table 2).
(§2) The cytotoxic activity of the complexes was evaluated in the A2780 (cisplatin sensitive) (Sigma-Aldrich) and OVCAR8 (cisplatin resistant) (ATCC) ovarian cancer cells. Cells were grown in RPMI-1640 medium (Gibco, Thermo Fisher) supplemented with 10% fetal bovine serum (FBS) and were maintained at 37 °C in a humidified atmosphere with 5% CO2. The complexes were initially dissolved in DMSO and then in culture medium to prepare serial dilutions in the range 10^−9–10^−4 M. After 24 and/or 48 h incubation the cellular viability was measured by the colorimetric MTT assay, as previously described.

[2] = tested on: zebrafish (Danio rerio) embryos; assay: Acute toxicity (mortality) in zebrafish embryo; assay type: in vivo; conditions: 72 hpf embryos, 0.1–10 μM, 48 h, in words
From the text: Toxicity is a major challenge for drug development and is the leading cause of drug failure. Consequently, the evaluation of the potential toxicity represents a critical step in the development of new drugs. In this context, the zebrafish embryo represents a notable in vivo vertebrate model for studying the toxic effects of chemical compounds due to the small size, robustness, multiple progenies from a single mating, chemical permeability, easiness of observation and maintenance under laboratory conditions. In addition, the close phylogeny of zebrafish and mammals, with highly conserved signaling pathways, makes this species increasingly used and ideal for performing toxicological studies. Therefore, we evaluated the complexes acute toxicity by measuring mortality of 72 h post-fertilization (hpf) zebrafish embryos when incubated with increasing concentrations of the Au(III) complexes for 48 h.
To test the toxicological effect of the gold (III) complexes, zebrafish (Danio rerio) embryos at developmental stage of 72 h post-fertilization (hpf) were exposed to different concentrations of the target complexes and mortality was assessed for 48 h of treatment. […]

Huh7 cells = assay: Cell viability (cell confluency, Alamar Blue) of P. berghei-infected Huh7 cells; assay type: cell-based; conditions: 5 µM, in words
Experimental: (§3) The in vitro liver stage activity of gold complexes was assessed against P. berghei-infected Huh7 cells, as previously described. Briefly, Huh7 cells were cultured in RPMI-1640 medium supplemented with 10% (v/v) fetal bovine serum, 1% (v/v) penicillin/streptomycin, 1% (v/v) glutamine, 1% (v/v) non-essential amino acids and 10 mM HEPES. On the day prior to infection, Huh7 cells were seeded in 96-well plates at a density of approximately 3.1 × 10^4 cell/cm^2 and incubated at 37 °C, 5% CO2. Stock solutions of the complexes were initially prepared in DMSO and serially diluted in infection medium, i.e., culture medium supplemented with gentamicin (50 µg/mL) and fungizone (0.8 µg/mL), to obtain the test concentrations. As a control, DMSO was diluted in infection medium to a percentage that equals that of the highest compound concentrations tested. These dilutions were added to the cells in triplicates and incubated for 1 h at 37 °C, 5% CO2, after which 1 × 10^4 luciferase-expressing P. berghei sporozoites were added to each well. Plates were centrifuged at 1800× g for 5 min at room temperature and incubated for the duration of the assay. At 46 h post-infection (hpi), the impact of each compound concentration on cell viability was assessed by the Alamar Blue (Invitrogen, Buckinghamshire, UK) assay, according to the manufacturer’s recommendations. Infection was next assessed by bioluminescence, employing the Firefly Luciferase Assay Kit 2.0 (Biotium, Fremont, CA, USA), according to the manufacturer’s recommendations. For IC50 determination, nonlinear regression analysis was employed to fit the normalized results of the dose–response curves, using GraphPad Prism 8 (GraphPad software, La Jolla, CA, USA).

E. coli ATCC25922 = assay: MIC determination, E. coli; assay type: cell-based, Escherichia coli; conditions: MH broth, 22 h, 37 °C
From the text: (§4) The bacterial strains Escherichia coli ATCC25922 and Staphylococcus aureus Newman were used in this work and maintained in Lennox Broth (LB) solid medium, composed of 10 g/L tryptone, 5 g/L yeast extract, 5 g/L NaCl and 20 g/L agar. The fungal strains Candida albicans SC5134 and C. glabrata CBS138 were used in this work and maintained in YPD solid medium, composed of 20 g/L glucose, 20 g/L peptone, 10 g/L yeast extract and 15 g/L agar. The strains were isolated from human infections.
(§5) The antimicrobial activity of the complexes towards the bacterial and fungal strains was assessed by the determination of the Minimal Inhibitory Concentration (MIC) of each complex towards the indicated microbial strains, based on standard methods, and as previously described. […] Serial 1:2 dilutions of stock solutions were prepared for each complex in Mueller–Hinton (MH) broth (Fluka Analytical) or RPMI-1640 medium (Sigma) supplemented with 20 g/L glucose and buffered with 0.165 M morpholinepropanesulphonic acid (RPMIG) to pH 7.0. Solutions prepared with MH were used for testing bacteria, while those prepared with RPMIG were used for testing fungi. For antibacterial activity assays, the final concentrations ranged from 250 to 0.24 μg/mL (when stock solution final concentration was 10 mg/mL), 125 μg/mL to 0.12 μg/mL (when stock solution final concentration was 5 mg/mL) and 62.5 to 0.06 μg/mL (when stock solution final concentration was 2.5 mg/mL). For antifungal assays, the final concentrations ranged from 125 μg/mL to 0.12 μg/mL (when stock solution final concentration was 10 mg/mL), 62.5 to 0.06 μg/mL (when stock solution final concentration was 5 mg/mL) and 31.25 to 0.03 μg/mL (when stock solution final concentration was 2.5 mg/mL). Then, 100 μL aliquots of adequately diluted bacterial suspensions of S. aureus Newman or E. coli ATCC 25922 were mixed with the MH serially diluted complexes aliquots to obtain 5 × 10^5 CFU/mL. In the case of fungi, cultures were diluted to obtain a final optical density of 0.025, measured at 530 nm (OD530). Bacterial suspensions were prepared from cultures grown for 5 h in MH broth at 37 °C and 250 rev·min^−1 and adequately diluted with fresh MH medium, while fungal suspensions were prepared from overnight cultures grown in YPD broth at 30 °C and 250 rev.min^−1 and diluted in buffered RPMIG. After 22 h of incubation at 37 °C (bacteria) or 24 h at 35 °C (fungi), the wells’ content was resuspended by pipetting and the OD640 (bacteria) or OD530 (fungi) were measured in a SPECTROstar Nano microplate reader (BMG Labtech).
(§6) At least three independent experiments were performed in duplicate for each complex under study. […] Positive (no complex) and negative controls (no inoculum) were performed for each experiment. The effect of 5% (V/V) DMSO on microbial growth was also assessed.

S. aureus Newman = assay: MIC determination, S. aureus; assay type: cell-based, Staphylococcus aureus; conditions: MH broth, 22 h, 37 °C
From the text: as §4, §5, §6

C. glabrata CBS138 = assay: MIC determination, C. glabrata; assay type: cell-based, Candida glabrata; conditions: RPMIG, 24 h, 35 °C
From the text: as §4, §5, §6

C. albicans SC5134 = assay: MIC determination, C. albicans; assay type: cell-based, Candida albicans; conditions: RPMIG, 24 h, 35 °C
From the text: as §4, §5, §6

[3] = tested on: OVCAR8 ovarian cancer cells; assay: MTT cytotoxicity assay in OVCAR8 (cisplatin resistant) ovarian cancer cells; assay type: cell-based, human; conditions: 48 h incubation
Experimental: as §1, §2

P. berghei hepatic stage = assay: In vitro activity against the hepatic stage of P. berghei infection (luciferase, Huh7 cells); assay type: cell-based, Plasmodium berghei; conditions: for IC50: hepatic stage, Huh7 cells, 46 hpi
Experimental: as §3

[4] = 24 h incubation, read-out: IC50 A2780, 24 h
[5] = 48 h incubation, read-out: IC50 A2780, 48 h

CCn1c2c(sc1=O)[S][Au-]1([S]c3sc(=O)n(CC)c3[S]1)[S]2.c1ccc([P+](c2ccccc2)(c2ccccc2)c2ccccc2)cc1 [[P][AuSEt(=O)]]
IC50 [1, 4]: 860 ± 110 nM | IC50 [1, 5]: 310 ± 100 nM | toxicity in zebrafish embryo [2]: more toxic than [P][AuSEt(=S)] | toxicity seen as lower cell confluency (Huh7 cells): some degree of toxicity | MIC E. coli ATCC25922 (E. coli ATCC25922): >125 µg/mL | MIC S. aureus Newman (S. aureus Newman): >125 µg/mL | MIC C. glabrata CBS138 (C. glabrata CBS138): >62.5 µg/mL | MIC C. albicans SC5134 (C. albicans SC5134): >62.5 µg/mL | IC50 [3]: 1160 ± 210 nM

CC[N+](CC)(CC)CC.Cn1c2c(sc1=S)[S][Au-]1([S]c3sc(=S)n(C)c3[S]1)[S]2 [[N][AuSMe(=S)]]
IC50 [1, 4]: 1630 ± 400 nM | IC50 [1, 5]: 110 nM | toxicity seen as lower cell confluency (Huh7 cells): some degree of toxicity | MIC E. coli ATCC25922 (E. coli ATCC25922): >250 µg/mL | MIC S. aureus Newman (S. aureus Newman): 4.4 ± 0.2 µg/mL | MIC C. glabrata CBS138 (C. glabrata CBS138): 2.9 ± 0.9 µg/mL | IC50 (P. berghei hepatic stage): 429 ± 39.6 nM | MIC C. albicans SC5134 (C. albicans SC5134): >62.5 *** µg/mL | IC50 [3]: 2440 ± 780 nM

CCCn1c2c(sc1=S)[S][Au-]1([S]c3sc(=S)n(CCC)c3[S]1)[S]2.CC[N+](CC)(CC)CC [[N][AuSPr(=S)]]
IC50 [1, 4]: 2930 ± 810 nM | IC50 [1, 5]: 2280 ± 690 nM | MIC E. coli ATCC25922 (E. coli ATCC25922): >250 µg/mL | MIC S. aureus Newman (S. aureus Newman): 1.1 ± 0.2 µg/mL | MIC C. glabrata CBS138 (C. glabrata CBS138): 1.6 ± 0.8 µg/mL | MIC C. albicans SC5134 (C. albicans SC5134): 3.1 µg/mL | MIC C. albicans SC5134 (C. albicans SC5134; listed as [ N ][AuSPr(=S)]): 3.1 ± 0.5 µg/mL | IC50 [3]: 2280 ± 190 nM

CCCn1c2c(sc1=S)[Se][Au-]1([Se]c3sc(=S)n(CCC)c3[Se]1)[Se]2.c1ccc([P+](c2ccccc2)(c2ccccc2)c2ccccc2)cc1 [[P][AuSePr(=S)]]
IC50 [1, 4]: 910 ± 400 nM | IC50 [1, 5]: 290 ± 100 nM | MIC E. coli ATCC25922 (E. coli ATCC25922): >250 µg/mL | MIC S. aureus Newman (S. aureus Newman): >250 µg/mL | MIC C. glabrata CBS138 (C. glabrata CBS138): >125 µg/mL | IC50 (P. berghei hepatic stage): 544 ± 19.4 nM | MIC C. albicans SC5134 (C. albicans SC5134): >125 µg/mL | IC50 [3]: 1570 ± 430 nM

CCCn1c2c(sc1=[Se])[S][Au-]1([S]c3sc(=[Se])n(CCC)c3[S]1)[S]2.c1ccc([P+](c2ccccc2)(c2ccccc2)c2ccccc2)cc1 [[P][AuSPr(=Se)]]
IC50 [1, 4]: 620 ± 190 nM | IC50 [1, 5]: 550 ± 410 nM | toxicity seen as lower cell confluency (Huh7 cells): some degree of toxicity | MIC E. coli ATCC25922 (E. coli ATCC25922): >125 µg/mL | MIC S. aureus Newman (S. aureus Newman): >125 µg/mL | MIC C. glabrata CBS138 (C. glabrata CBS138): >62.5 µg/mL | IC50 (P. berghei hepatic stage): 643.9 ± 1.34 nM | MIC C. albicans SC5134 (C. albicans SC5134): 62.5 µg/mL | IC50 [3]: 800 ± 180 nM

O=C1C(O)=C([C@H]2CC[C@H](c3ccc(Cl)cc3)CC2)C(=O)c2ccccc21 [Atovaquone, reference compound]
activity against hepatic stage of P. berghei (positive control) (P. berghei hepatic stage; in words): nanomolar-ranged activity

CCn1c2c(sc1=[Se])[Se][Au-]1([Se]c3sc(=[Se])n(CC)c3[Se]1)[Se]2.c1ccc([P+](c2ccccc2)(c2ccccc2)c2ccccc2)cc1 [[P][AuSeEt(=Se)]]
IC50 [1, 4]: 3960 ± 2210 nM | IC50 [1, 5]: 640 ± 190 nM | MIC E. coli ATCC25922 (E. coli ATCC25922): >125 µg/mL | MIC S. aureus Newman (S. aureus Newman): >125 µg/mL | MIC C. glabrata CBS138 (C. glabrata CBS138): >62.5 µg/mL | IC50 (P. berghei hepatic stage): 518 ± 246 nM | MIC C. albicans SC5134 (C. albicans SC5134): >62.5 µg/mL | IC50 [3]: 2420 ± 1520 nM

CC[N+](CC)(CC)CC.CCn1c2c(sc1=S)[Se][Au-]1([Se]c3sc(=S)n(CC)c3[Se]1)[Se]2 [[N][AuSeEt(=S)]]
IC50 [1, 4]: 19200 ± 2010 nM | IC50 [1, 5]: 4320 ± 1170 nM | MIC E. coli ATCC25922 (E. coli ATCC25922): >125 µg/mL | MIC S. aureus Newman (S. aureus Newman): 5.5 ± 0.3 µg/mL | MIC C. glabrata CBS138 (C. glabrata CBS138): 1.6 ± 0.8 µg/mL | MIC C. albicans SC5134 (C. albicans SC5134): >62.5 µg/mL | IC50 [3]: 29400 ± 4200 nM

CC(C)n1c2c(sc1=S)[Se][Au-]1([Se]c3sc(=S)n(C(C)C)c3[Se]1)[Se]2.CC[N+](CC)(CC)CC [[N][AuSeiPr(=S)]]
IC50 [1, 4]: 30300 ± 3390 nM | IC50 [1, 5]: 8270 ± 1120 nM | MIC E. coli ATCC25922 (E. coli ATCC25922): >250 µg/mL | MIC S. aureus Newman (S. aureus Newman): 1.5 ± 0.1 µg/mL | MIC C. glabrata CBS138 (C. glabrata CBS138): 2.1 ± 0.1 µg/mL | MIC C. albicans SC5134 (C. albicans SC5134): >125 µg/mL | IC50 [3]: 8760 ± 690 nM
